In patent publication US7045528B2, “Benzofused heterozryl amide derivatives of thienopyridines useful as therapeutic agents, pharmaceutical compositions including the same, and methods for their use” (Agouron Pharmaceuticals, Inc., priority 2002, dated 2006):

How the values were obtained:
[1] = target: T1, unphosphorylated VEGF-R2Δ50 (FLVK) (Homo sapiens, UniProt P35968, DEL940-989/E990V); experiment: VEGF-R2 coupled spectrophotometric assay, unphosphorylated VEGF-R2Δ50 (FLVK); assay type: biochemical; conditions: unphosphorylated VEGF-R2Δ50; for inhibition at 0.05 µM: 50 nM compound, read-out: FLVK (% inh @ 50 nM)
T1 construct: VEGF-R2Δ50 contains residues 806–939 and 990–1171; made in house; host or cells: baculovirus/insect cell system
Summary of the method: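 Ki obtained by Morrison-equation fitting of activity at varied compound levels; reaction started with 5–40 nM enzyme. Non-autophosphorylated kinase construct (insect cell-expressed) with 3 mM ATP, 20 mM poly(E4Y1), 60 mM MgCl2 plus 2 mM MnCl2, pH 7.5 HEPES; NADH loss at 340 nm via PK/LDH coupling.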

[2] = Mouse PK assay; assay type: in vivo; conditions: 50 mg/kg, B6 female mice, plasma; for AUC / Cmax: mouse, po
Protocol: The pharmacokinetics (e.g., absorption and elimination) of drugs in mice were analyzed using the following experiment. Test compounds were formulated as a suspension in a 30:70 (PEG 400:acidified H2O) vehicle. This solution was administered orally (p.o.) and intraperitoneally (i.p.) at 50 mg/kg to two distinct groups (n=4) of B6 female mice. Blood samples were collected via an orbital bleed at time points: 0 hour (pre-dose), 0.5 hr, 1.0 hr, 2.0 hr, and 4.0 hr post dose. Plasma was obtained from each sample by centrifugation at 2500 rpm for 5 min. Test compound was extracted from the plasma by an organic protein precipitation method. For each time bleed, 50 μL of plasma was combined with 1.0 mL of acetonitrile, vortexed for 2 min. and then spun at 4000 rpm for 15 min. to precipitate the protein and extract out the test compound. Next, the acetonitrile supernatant (the extract containing test compound) was poured into new test tubes and evaporated on a hot plate (25° C.) under a steam of N2 gas. To each tube containing the dried test compound extract, 125 μL of mobile phase (60:40, 0.025 M NH4H2PO4+2.5 mL/L TEA:acetonitrile) was added. The test compound was resuspended in the mobile phase by vortexing and more protein was removed by centrifugation at 4000 rpm for 5 min. Each sample was poured into an HPLC vial for test compound analysis on an Hewlett Packard 1100 series HPLC with UV detection. From each sample, 95 μL was injected onto a Phenomenex-Prodigy reverse phase C-18, 150×3.2 mm column and eluted with a 45–50% acetonitrile gradient run over 10 min. Test-compound plasma concentrations (μg/mL) were determined by a comparison to standard curve (peak area vs. conc. μg/mL) using known concentrations of test compound extracted from plasma samples in the manner described above. Along with the standards and unknowns, three groups (n=4) of quality controls (0.25 μg/mL, 1.5 μg/mL, and 7.5 μg/mL) were run to insure the consistency of the analysis. […] The quantitated test samples were plotted for visual display using Kalidagraph software and their pharmacokinetic parameters were determined using WIN NONLIN software.

T1 sequence (P35968 with tags, fused parts or gaps DEL940-989/E990V limits assumed): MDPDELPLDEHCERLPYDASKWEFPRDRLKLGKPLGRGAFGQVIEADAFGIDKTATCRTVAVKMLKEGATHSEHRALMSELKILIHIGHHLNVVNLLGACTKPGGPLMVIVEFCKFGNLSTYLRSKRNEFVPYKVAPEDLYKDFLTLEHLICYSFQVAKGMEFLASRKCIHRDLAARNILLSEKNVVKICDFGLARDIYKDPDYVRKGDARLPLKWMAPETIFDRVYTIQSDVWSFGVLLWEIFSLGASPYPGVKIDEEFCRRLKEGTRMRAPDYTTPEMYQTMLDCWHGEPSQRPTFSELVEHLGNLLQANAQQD

Row | SMILES | inhibition at 0.05 µM [1] [%] | Ki [1] [pM] | mouse Cmin, po [2] [ng/mL] | AUC [2] [ng·h/mL] | Cmax [2] [ng/mL]
1 | CCCNC(=O)c1c(C)n(C)c2cc(Oc3ccnc4cc(-c5nccn5C)sc34)ccc12 [Example 61, 1,2-Dimethyl-6-[2-(1-methyl-1H-imidazol-2-yl)thieno[3,2-b]pyridin-7-yloxy]-1H-indole-3-carboxylic acid propylamide] | 89 | – | – | – | –
2 | CNC(=O)c1c(C)n(C)c2cc(Oc3ccnc4cc(C(=O)N5CC[C@@H](OC)C5)sc34)ccc12 [Example 18, 1,2-dimethyl-6-(2-[3-methoxy-pyrrolidine-1-carbonyl]thieno[3,2-b]pyridin-7-yloxy)-1H-indole-3-carboxylic acid methylamide] | 78 | 2370 | 342 | 8720 | 4120
3 | CNC(=O)c1c(C)sc2cc(Oc3ccnc4cc(-c5nccn5C)sc34)ccc12 [Example 1, 2-methyl-6-(2-[1-methyl-1H-imidazol-2-yl]thieno[3,2-b]pyridin-7-yloxy)benzo[b]thiophene-3-carboxylic acid methylamide] | 92 | 1020 | 2793 | 183000 | 125000
4 | CNC(=O)c1c(C)sc2cc(Oc3ccnc4cc(C(=O)N5CC[C@@H](O)C5)sc34)ccc12 [Example 6, 6-(2-[(R)-3-hydroxypyrrolidine-1-carbonyl]thieno[3,2-b]pyridin-7-yloxy)-2-methylbenzo[b]thiophene-3-carboxylic acid methylamide] | 94 | 721 | 20 | 586 | 355
5 | CNC(=O)c1c(C)sc2cc(Oc3ccnc4cc(C(=O)N5CC[C@@H](OC)C5)sc34)ccc12 [Example 4, 6-(2-[(R)-3-methoxypyrrolidine-1-carbonyl]thieno[3,2-b]pyridin-7-yloxy)-2-methylbenzo[b]thiophene-3-carboxylic acid methylamide] | 88 | 2580 | 200 | 7670 | 2340
6 | CNC(=O)c1c(C)n(C)c2cc(Oc3ccnc4cc(C(=O)N5CC[C@@H](O)C5)sc34)ccc12 [Example 19, 1,2-dimethyl-6-(2-[3-hydroxy-pyrrolidine-1-carbonyl]thieno[3,2-b]pyridin-7-yloxy)-1H-indole-3-carboxylic acid methylamide] | 75 | 2630 | 4 | 120 | 51
7 | CNC(=O)c1c(C)sc2cc(Oc3ccnc4cc(C(=O)N5CCC[C@H]5COC)sc34)ccc12 [Example 2, 6-(2-[(S)-2-(methoxymethyl)pyrrolidine-1-carbonyl]thieno[3,2-b]pyridin-7-yloxy)-2-methylbenzo[b]thiophene-3-carboxylic acid methylamide] | 75 | 4140 | – | – | –
8 | CNC(=O)c1c(C)sc2cc(Oc3ccnc4cc(C(=O)N5CCC[C@H]5CO)sc34)ccc12 [Example 3] | 59 | 811 | 66 | 2450 | 956
9 | CNC(=O)c1c(C)n(C)c2cc(Oc3ccnc4cc(-c5nccn5C)sc34)ccc12 [Example 17, 1,2-dimethyl-6-(2-[1-methyl-1H-imidazol-2-yl]thieno[3,2-b]pyridin-7-yloxy)-1H-indole-3-carboxylic acid methylamide] | 77 | 2770 | 2334 | 71600 | 28800

Continued, values first:

Row | inhibition at 0.05 µM [1] [%] | Ki [1] [pM] | mouse Cmin, po [2] [ng/mL] | AUC [2] [ng·h/mL] | Cmax [2] [ng/mL] | SMILES
10 | 97 | 322 | 1700 | 63000 | 24800 | CNC(=O)c1c(C)oc2cc(Oc3ccnc4cc(-c5nccn5C)sc34)ccc12 [Example 13]
11 | 91 | 570 | – | – | – | CCCCNC(=O)c1c(C)n(C)c2cc(Oc3ccnc4cc(-c5nccs5)sc34)ccc12 [Example 62, 1,2-Dimethyl-6-(2-thiazol-2-yl-thieno[3,2-b]pyridin-7-yloxy)-1H-indole-3-carboxylic acid butylamide]
12 | 100 | 314 | 270 | 12000 | 5420 | CNC(=O)c1c(C)oc2cc(Oc3ccnc4cc(C(=O)N5CC[C@@H](OC)C5)sc34)ccc12 [Example 12, 6-(2-[3-methoxypyrrolidine-1-carbonyl]thieno[3,2-b]pyridin-7-yloxy)-2-methylbenzofuran-3-carboxylic acid methylamide]
13 | 99 | 82 | – | – | – | Cc1c(C(=O)NC2CC2)c2ccc(Oc3ccnc4cc(-c5nccn5C)sc34)cc2n1C [Example 20, 1,2-Dimethyl-6-[2-(1-methyl-1H-imidazol-2-yl)-thieno[3,2-b]pyridin-7-yloxy]-1H-indole-3-carboxylic acid cyclopropylamide]
